23 compounds from US10899758B2, “Inhibitors of the menin-MLL interaction” (Vitae Pharmaceuticals, LLC, priority 2016, dated 2021) can be followed below.

This assay addresses T1, menin/MLL binding (biotinylated wild-type or mutated menin and MLL-AF9 fusion protein) (Homo sapiens, UniProt O00255).
T1 construct: biotinylated (1) wild-type menin or (2) mutated menin (described in Nature (2012) Vol. 482, pp. 542-548); fused on or other part: Biotin attached chemically (Sulfo-NHS-Biotin); no fused second protein is printed for menin
T1 sequence (O00255 1-459 limits assumed): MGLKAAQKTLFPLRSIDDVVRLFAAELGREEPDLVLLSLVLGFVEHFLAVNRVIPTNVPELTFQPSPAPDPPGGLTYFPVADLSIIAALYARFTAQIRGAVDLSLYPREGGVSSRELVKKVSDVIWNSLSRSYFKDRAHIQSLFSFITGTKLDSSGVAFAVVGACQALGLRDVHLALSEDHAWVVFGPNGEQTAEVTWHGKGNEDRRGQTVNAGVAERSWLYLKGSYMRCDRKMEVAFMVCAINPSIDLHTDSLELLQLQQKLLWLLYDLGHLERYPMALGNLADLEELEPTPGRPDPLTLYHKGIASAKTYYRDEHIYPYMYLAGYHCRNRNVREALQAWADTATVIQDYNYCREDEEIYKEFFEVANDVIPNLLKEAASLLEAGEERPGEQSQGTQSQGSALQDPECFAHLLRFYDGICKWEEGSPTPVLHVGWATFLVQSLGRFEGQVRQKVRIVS
Briefly: Assay 1 (Binding Assay): AlphaLISA menin/MLL binding. Conditions: 5 nM biotinylated menin, MLL-AF9-FLAG lysate. The protocol: Potencies of inhibitor compounds against menin/MLL binding were assessed by AlphaLISA assay using biotinylated (1) wild-type menin or (2) mutated menin (described in Nature (2012) Vol. 482, pp. 542-548) and MLL-AF9 fusion protein bearing a FLAG epitope at its C-terminus. Menin proteins were expressed in E. coli and covalently modified with biotin using EZ-Link™ Sulfo-NHS-Biotin (ThermoFisher Cat. No. 21217) according to manufacturer's protocol. MLL1-1,396 fused to AF91-92 and the C-terminal FLAG peptide was expressed in HEK293 cells and used as a lysate cleared at 21,000×g for 10 min.
Compounds (2 μL of solutions in DMSO) were dispensed in white 96-well half-area plates (Corning Cat. No. 3693) and incubated for 30 min at RT with 5 nM biotinylated menin and appropriate amount of MLL-AF9-FLAG lysate in 40 μL of 50 mM Tris-HCl buffer pH 7.4 containing 5% (v/v) DMSO, 50 mM NaCl, 0.01% (w/v) bovine serum albumin (BSA) and 1 mM DTT. To this incubation mixture, 40 μl of AlphaLISA anti-FLAG acceptor (PerkinElmer Cat. No. AL112C) and streptavidin donor (PerkinElmer Cat. No. 6760002) beads (10 μg/mL each) was added and incubation continued at RT for 60 min. Alpha (amplified luminescent proximity homogeneous assay) signal was measured on an Envision multi-label plate reader at the end of the incubation. All steps were conducted under dim fluorescent light.
These percent inhibition values were regressed against compound concentrations in the assay using four parameter logit non-linear curve fitting (XLFit, IDBS). The IC50 values were derived from the curve fitting as inflection points on the dose-response curves and are set out in Table 14 below.
In general terms: In Alpha technology, singlet oxygen from a donor bead excites a nearby acceptor bead.
Take `CC(C)N(C)C(=O)c1cc(F)ccc1-n1cc(C2C[C@@H](C)N[C@@H](C)C2)c2ccncc21` (stereo partly drawn) [Int. 13, 2-(3-((2S,6R)-2,6-dimethylpiperidin-4-yl)-1H-pyrrolo[2,3-c]pyridin-1-yl)-5-fluoro-N-isopropyl-N-methylbenzamide]: the IC50 (in general, the midpoint of a concentration-inhibition curve) lay in the range of 100 to 1000 nM. With `CC(C)N(C)C(=O)c1cc(F)ccc1-n1cc(C2CCC(Oc3ccccc3)CC2)c2ccncc21` (centres unmarked) [Example 59, 5-fluoro-N-isopropyl-N-methyl-2-(3-(4-phenoxycyclohexyl)-1H-pyrrolo[2,3-c]pyridin-1-yl)benzamide], the half-maximal inhibitory concentration (IC50) lay in the range of 100 to 1000 nM. Then `CC(C)N(C)C(=O)c1cc(F)ccc1-n1cc(C2CCC(N(C)CC3CCC(NS(C)(=O)=O)CC3)CC2)c2ccncc21` (single isomer, unassigned) [Example 128A, 5-fluoro-N-isopropyl-N-methyl-2-(3-(4-(methyl((4-(methylsulfonamido)cyclohexyl)methyl)amino)cyclohexyl)-1H-pyrrolo[2,3-c]pyridin-1-yl)benzamide], with below 100 nM; and `CC(C)N(C(=O)c1cc(F)ccc1-n1cc(C2CCC(N3CCC4(CC(NS(C)(=O)=O)C4)C3)CC2)c2ccncc21)C(C)C` (single isomer, unassigned) [Example 139, 5-fluoro-N,N-diisopropyl-2-(3-(4-(2-(methylsulfonamido)-6-azaspiro[3.4]octan-6-yl)cyclohexyl)-1H-pyrrolo[2,3-c]pyridin-1-yl)benzamide], with below 100 nM; and `CC(C)N(C)C(=O)c1cc(F)ccc1-n1cc([C@H]2CC[C@H](NC(=O)c3ccccc3)CC2)c2ccncc21` [Example 129, 2-(3-(trans-4-benzamidocyclohexyl)-1H-pyrrolo[2,3-c]pyridine-1-yl)-5-fluoro-N-isopropyl-N-methylbenzamide], with at least 1000 nM. Then `CC(C)N(C)C(=O)c1cc(F)ccc1-n1cc(C2CCN(C(=O)C3Cc4ccccc4C3)CC2)c2ccncc21` [Example 132, 2-(3-(1-(2,3-dihydro-1H-indene-2-carbonyl)piperidin-4-yl)-1H-pyrrolo[2,3-c]pyridin-1-yl)-5-fluoro-N-isopropyl-N-methylbenzamide], with below 100 nM.

For `CC(C)N(C)C(=O)c1cc(F)ccc1-n1cc(-c2ccc3c(c2)CCN(C)C3)c2ccncc21` [Example 52, 5-fluoro-N-isopropyl-N-methyl-2-(3-(2-methyl-1,2,3,4-tetrahydroisoquinolin-6-yl)-1H-pyrrolo[2,3-c]pyridin-1-yl)benzamide], the half-maximal inhibitory concentration (IC50) was in the range of 100 to 1000 nM. In the case of `CC(C)N(C)C(=O)c1cc(F)ccc1-n1c(=O)n(C2CCN(CC3CCCCC3)CC2)c2ccncc21` [Example 81, 2-(1-(1-(cyclohexylmethyl)piperidin-4-yl)-2-oxo-1,2-dihydro-3H-imidazo[4,5-c]pyridin-3-yl)-5-fluoro-N-isopropyl-N-methylbenzamide], the IC50 is below 100 nM.

The compound `CC(C)N(C)C(=O)c1cc(F)ccc1-n1cc([C@H]2CC[C@H](N3CCC(C(=O)O)CC3)CC2)c2ccncc21` [Example 119, 1-(trans-4-(1-(4-fluoro-2-(isopropyl(methyl)carbamoyl)phenyl)-1H-pyrrolo[2,3-c]pyridin-3-yl)cyclohexyl)piperidine-4-carboxylic acid] displayed a 50% inhibitory concentration (IC50) of 100 to 1000 nM.

Consider `CC(C)N(C)C(=O)c1cc(F)ccc1-n1cc([C@H]2CC[C@@H](N3CC[C@H](CO)C3)CC2)c2ccncc21` [Example 105, 5-fluoro-2-(3-(cis-4-((S)-3-(hydroxymethyl)pyrrolidin-1-yl)cyclohexyl)-1H-pyrrolo[2,3-c]pyridin-1-yl)-N-isopropyl-N-methylbenzamide], for which the half-inhibitory concentration (IC50) lay within 100 to 1000 nM.

On to `CC(C)N(C)C(=O)c1cc(F)ccc1-n1c(=S)n(C2CCCN(Cc3ccc4[nH]c(=O)[nH]c4c3)C2)c2ccncc21` (centres unmarked) [Example 135, 5-fluoro-N-isopropyl-N-methyl-2-(1-(1-((2-oxo-2,3-dihydro-1H-benzo[d]imidazol-5-yl)methyl)piperidin-3-yl)-2-thioxo-1,2-dihydro-3H-imidazo[4,5-c]pyridin-3-yl)benzamide], for which the IC50 is 100 to 1000 nM. Under `Cc1c(CN2CCC(c3cn(-c4cccc(F)c4)c4cncnc34)CC2)ccc2[nH]c(C#N)cc12` [Example 71, 5-((4-(5-(3-fluorophenyl)-5H-pyrrolo[3,2-d]pyrimidin-7-yl)piperidin-1-yl)methyl)-4-methyl-1H-indole-2-carbonitrile] stands at least 1000 nM; under `CC(C)N(C(=O)c1cc(F)ccc1-n1cc(C2CCC(N3CCC4(CC(NS(C)(=O)=O)C4)C3)CC2)c2ccncc21)C(C)C` (single isomer, unassigned) [Example 139A, 5-fluoro-N,N-diisopropyl-2-(3-(4-(2-(methylsulfonamido)-6-azaspiro[3.4]octan-6-yl)cyclohexyl)-1H-pyrrolo[2,3-c]pyridin-1-yl)benzamide], below 100 nM. In turn, `CC(C)N(C)C(=O)c1cc(F)ccc1-n1cc(C2CCC(O)CC2)c2ccncc21` (single isomer, unassigned) [Example 53, 5-fluoro-2-(3-(4-hydroxycyclohexyl)-1H-pyrrolo[2,3-c]pyridin-1-yl)-N-isopropyl-N-methylbenzamide] came in with a 50% inhibitory concentration (IC50) of at least 1000 nM. Under `CC(C)N(C)C(=O)c1cc(F)ccc1-n1cc(C2CCN(c3ccccn3)CC2)c2ccncc21` [Example 94, 5-fluoro-N-isopropyl-N-methyl-2-(3-(1-(pyridin-2-yl)piperidin-4-yl)-1H-pyrrolo[2,3-c]pyridin-1-yl)benzamide] stands below 100 nM; under `Cc1c(CN2CCC(c3cn(-c4ccc(F)cc4C(=O)N(C)C)c4cncnc34)CC2)ccc2[nH]c(C#N)cc12` [Example 64, 2-(7-(1-((2-cyano-4-methyl-1H-indol-5-yl)methyl)piperidin-4-yl)-5H-pyrrolo[3,2-d]pyrimidin-5-yl)-5-fluoro-N,N-dimethylbenzamide], below 100 nM. Then `Fc1ccc(-n2cc(C3CCN(Cc4ccc5cc[nH]c5c4)CC3)c3ncncc32)cc1` [Example 68, 7-(1-((1H-indol-6-yl)methyl)piperidin-4-yl)-5-(4-fluorophenyl)-5H-pyrrolo[3,2-d]pyrimidine], with at least 1000 nM. Then `CC(C)N(C)C(=O)c1cc(F)ccc1-n1cc(C2CCC(O)CC2)c2ccncc21` (single isomer, unassigned) [Example 53A, 5-fluoro-2-(3-(4-hydroxycyclohexyl)-1H-pyrrolo[2,3-c]pyridin-1-yl)-N-isopropyl-N-methylbenzamide], with at least 1000 nM. Compound `CC(C)N(C)C(=O)c1cc(F)ccc1-n1cc([C@H]2CC[C@@H](N3CCN(CCO)CC3)CC2)c2ccncc21` [Example 115, 5-fluoro-2-(3-(cis-4-(4-(2-hydroxyethyl)piperazin-1-yl)cyclohexyl)-1H-pyrrolo[2,3-c]pyridin-1-yl)-N-isopropyl-N-methylbenzamide] had a concentration for half-maximal inhibition (IC50) of 100 to 1000 nM. “5-fluoro-N-isopropyl-N- methyl-2-(3-(2-((1- (methylsulfonyl) piperidin-4-yl)methyl) octahydrocyclopenta [c]pyrrol-5-yl)- 1H-pyrrolo[2,3-c] pyridin-1-yl) benzamide [Example 91]” displayed a half-maximal inhibitory concentration (IC50) below 100 nM. Under `Cc1c(CN2CCC(c3cn(-c4ccc(F)cc4)c4cncnc34)CC2)ccc2[nH]c(C#N)cc12` [Example 66, 5-((4-(5-(4-fluorophenyl)-5H-pyrrolo[3,2-d]pyrimidin-7-yl)piperidin-1-yl)methyl)-4-methyl-1H-indole-2-carbonitrile] stands 100 to 1000 nM; under `CC(C)N(C)C(=O)c1cc(F)ccc1-n1cc([C@H]2CC[C@@H](N3CCCCC3)CC2)c2ccncc21` [Example 107], below 100 nM.

Take `CC(C)N(C)C(=O)c1cc(F)ccc1-n1cc([C@H]2CC[C@H](N3CCN(CCO)CC3)CC2)c2ccncc21` [Example 114, 5-fluoro-2-(3-(trans-4-(4-(2-hydroxyethyl)piperazin-1-yl)cyclohexyl)-1H-pyrrolo[2,3-c]pyridin-1-yl)-N-isopropyl-N-methylbenzamide]: the 50% inhibitory concentration (IC50) was below 100 nM.
